Measurements published in PubChem BioAssay AID1963836 (Molecular Pharmacology Branch, DTP, NCI, 2024).
pIC50: −log10 of the molar value.

Test system: 857933-349-R-J2-PDC complex spheroid viability
Test: Anticancer human tumor 857933-349-R-J2-PDC patient-derived colon adenocarcinoma cell line growth inhibition [POLQ]
Settings: for pIC50: curve of first compound; for viability, T/C: stronger effect = lower value
How it was run: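 Complex spheroid viability model combining PDC tumour cells with endothelial (HUVEC) and MSC stromal cells. Novobiocin, ART-558 or RP6685 were tested singly and in combination with standard and investigational anticancer drugs. Each was titrated in half-log steps from near clinical Cmax, or from 10 microM where Cmax was unknown.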
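Further: spheroids exposed to compounds for seven days before readout.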

## CCc1cc2c(N3CCc4c(cc(Cn5ccnc5)cc4-c4cn(C)nc4C(F)(F)F)C3=O)ccnc2c(OC)n1 + COC1C(OC(N)=O)C(O)C(Oc2ccc3c(O)c(NC(=O)c4ccc(O)c(CC=C(C)C)c4)c(=O)oc3c2C)OC1(C)C
Second compound 0.0316 µM
  pIC50: < 5.00
Second compound 0.1 µM
  pIC50: 5.12
Second compound 0.316 µM
  pIC50: < 5.00
Second compound 1 µM
  pIC50: < 5.00
Second compound 3.16 µM
  pIC50: < 5.00
Second compound 10 µM
  pIC50: < 5.00
Second compound 0.0316 µM, first compound 0.0316 µM
  viability, T/C: 88.9%
Second compound 0.0316 µM, first compound 0.1 µM
  viability, T/C: 93.4%
Second compound 0.0316 µM, first compound 0.316 µM
  viability, T/C: 106%
Second compound 0.0316 µM, first compound 1 µM
  viability, T/C: 75.6%
Second compound 0.0316 µM, first compound 3.16 µM
  viability, T/C: 66%
Second compound 0.0316 µM, first compound 10 µM
  viability, T/C: 51.8%
Second compound 0.1 µM, first compound 0.0316 µM
  viability, T/C: 103%
Second compound 0.1 µM, first compound 0.1 µM
  viability, T/C: 93.1%
Second compound 0.1 µM, first compound 0.316 µM
  viability, T/C: 80.2%
Second compound 0.1 µM, first compound 1 µM
  viability, T/C: 84.2%
Second compound 0.1 µM, first compound 3.16 µM
  viability, T/C: 61%
Second compound 0.1 µM, first compound 10 µM
  viability, T/C: 44.6%
Second compound 0.316 µM, first compound 0.0316 µM
  viability, T/C: 90.4%
Second compound 0.316 µM, first compound 0.1 µM
  viability, T/C: 104%
Second compound 0.316 µM, first compound 0.316 µM
  viability, T/C: 73.4%
Second compound 0.316 µM, first compound 1 µM
  viability, T/C: 71.5%
Second compound 0.316 µM, first compound 3.16 µM
  viability, T/C: 65.4%
Second compound 0.316 µM, first compound 10 µM
  viability, T/C: 58.4%
Second compound 1 µM, first compound 0.0316 µM
  viability, T/C: 90%
Second compound 1 µM, first compound 0.1 µM
  viability, T/C: 79%
Second compound 1 µM, first compound 0.316 µM
  viability, T/C: 74.9%
Second compound 1 µM, first compound 1 µM
  viability, T/C: 69.8%
Second compound 1 µM, first compound 3.16 µM
  viability, T/C: 61.3%
Second compound 1 µM, first compound 10 µM
  viability, T/C: 59.5%
Second compound 3.16 µM, first compound 0.0316 µM
  viability, T/C: 96.3%
Second compound 3.16 µM, first compound 0.1 µM
  viability, T/C: 98.2%
Second compound 3.16 µM, first compound 0.316 µM
  viability, T/C: 82.7%
Second compound 3.16 µM, first compound 1 µM
  viability, T/C: 73.6%
Second compound 3.16 µM, first compound 3.16 µM
  viability, T/C: 75.3%
Second compound 3.16 µM, first compound 10 µM
  viability, T/C: 58.2%
Second compound 10 µM, first compound 0.0316 µM
  viability, T/C: 99.6%
Second compound 10 µM, first compound 0.1 µM
  viability, T/C: 94.5%
Second compound 10 µM, first compound 0.316 µM
  viability, T/C: 75.6%
Second compound 10 µM, first compound 1 µM
  viability, T/C: 92.3%
Second compound 10 µM, first compound 3.16 µM
  viability, T/C: 59.7%
Second compound 10 µM, first compound 10 µM
  viability, T/C: 62.8%
